Test results published in publication PMC9481106, “Design, synthesis and biological evaluation of 2,4-pyrimidinediamine derivatives as ALK and HDACs dual inhibitors for the treatment of ALK addicted cancer” (Journal of Enzyme Inhibition and Medicinal Chemistry, 2022).

Key:
HDAC1 = HDAC1 (Homo sapiens, UniProt Q13547); assay: enzyme inhibition assay with fluorescent assay kit; format: biochemical
[1] = molecular target: ALK^wt (anaplastic lymphoma kinase) (Homo sapiens, UniProt Q9UM73); assay: enzyme inhibition assay with fluorescent assay kit; format: biochemical
Chain of ALK^wt (anaplastic lymphoma kinase) (Q9UM73 19-1620): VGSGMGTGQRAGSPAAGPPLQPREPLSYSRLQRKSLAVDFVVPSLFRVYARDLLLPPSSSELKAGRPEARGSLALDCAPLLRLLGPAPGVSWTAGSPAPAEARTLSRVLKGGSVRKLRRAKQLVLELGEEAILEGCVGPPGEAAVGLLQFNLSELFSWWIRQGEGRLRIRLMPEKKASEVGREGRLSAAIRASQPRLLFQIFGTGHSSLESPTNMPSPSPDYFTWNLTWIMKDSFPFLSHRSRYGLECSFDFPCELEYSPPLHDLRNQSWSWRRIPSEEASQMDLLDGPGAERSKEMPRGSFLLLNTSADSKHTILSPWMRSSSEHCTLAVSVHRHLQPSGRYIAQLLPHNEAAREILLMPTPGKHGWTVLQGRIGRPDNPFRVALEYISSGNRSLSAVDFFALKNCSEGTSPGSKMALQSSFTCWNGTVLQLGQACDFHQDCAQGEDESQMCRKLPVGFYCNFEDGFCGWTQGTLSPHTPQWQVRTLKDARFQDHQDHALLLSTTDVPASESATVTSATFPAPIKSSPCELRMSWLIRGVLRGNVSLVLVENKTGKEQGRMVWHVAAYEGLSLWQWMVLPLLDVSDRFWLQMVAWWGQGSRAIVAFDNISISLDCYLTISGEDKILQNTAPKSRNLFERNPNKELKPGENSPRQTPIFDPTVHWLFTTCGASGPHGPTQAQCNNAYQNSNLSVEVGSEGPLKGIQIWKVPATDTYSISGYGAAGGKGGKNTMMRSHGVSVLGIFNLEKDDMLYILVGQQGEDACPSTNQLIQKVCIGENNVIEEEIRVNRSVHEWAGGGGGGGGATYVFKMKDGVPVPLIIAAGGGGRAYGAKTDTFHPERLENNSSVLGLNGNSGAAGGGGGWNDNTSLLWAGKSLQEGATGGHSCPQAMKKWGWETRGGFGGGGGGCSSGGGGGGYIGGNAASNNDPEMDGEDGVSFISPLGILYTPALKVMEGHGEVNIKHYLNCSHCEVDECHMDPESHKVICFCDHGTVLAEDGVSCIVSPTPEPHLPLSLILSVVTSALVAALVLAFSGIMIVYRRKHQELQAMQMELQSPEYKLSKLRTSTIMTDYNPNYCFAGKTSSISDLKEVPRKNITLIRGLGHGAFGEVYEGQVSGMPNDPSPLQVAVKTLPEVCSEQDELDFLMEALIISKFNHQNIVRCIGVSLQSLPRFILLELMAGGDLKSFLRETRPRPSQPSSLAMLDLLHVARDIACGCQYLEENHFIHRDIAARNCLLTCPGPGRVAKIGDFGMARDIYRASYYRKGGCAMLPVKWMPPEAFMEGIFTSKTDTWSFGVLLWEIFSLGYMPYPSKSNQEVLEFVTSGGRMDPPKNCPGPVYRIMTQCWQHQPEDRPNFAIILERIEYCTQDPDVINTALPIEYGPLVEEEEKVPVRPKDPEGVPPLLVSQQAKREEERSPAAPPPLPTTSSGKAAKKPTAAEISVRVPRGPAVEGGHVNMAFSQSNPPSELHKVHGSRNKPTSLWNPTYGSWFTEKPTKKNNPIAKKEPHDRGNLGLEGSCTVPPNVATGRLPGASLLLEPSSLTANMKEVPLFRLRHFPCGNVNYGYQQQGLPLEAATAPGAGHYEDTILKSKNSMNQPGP

Chain of HDAC1 (Q13547 whole entry): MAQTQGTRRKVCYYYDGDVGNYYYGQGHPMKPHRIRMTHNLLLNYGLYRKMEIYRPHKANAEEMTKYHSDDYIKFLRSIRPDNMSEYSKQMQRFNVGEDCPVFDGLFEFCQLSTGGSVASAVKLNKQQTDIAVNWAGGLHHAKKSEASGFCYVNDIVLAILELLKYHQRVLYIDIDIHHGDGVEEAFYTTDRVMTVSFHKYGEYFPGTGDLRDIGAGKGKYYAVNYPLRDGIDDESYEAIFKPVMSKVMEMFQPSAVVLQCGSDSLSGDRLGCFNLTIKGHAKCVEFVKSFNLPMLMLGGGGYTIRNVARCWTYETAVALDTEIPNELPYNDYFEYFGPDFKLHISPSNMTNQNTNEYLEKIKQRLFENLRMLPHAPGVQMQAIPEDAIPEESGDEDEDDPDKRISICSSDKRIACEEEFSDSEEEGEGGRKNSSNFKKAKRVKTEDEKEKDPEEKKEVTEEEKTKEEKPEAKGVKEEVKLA

IC50 (HDAC1): 1450 nM
IC50 [1]: 9.5 nM
Structure (SMILES): CC(C)S(=O)(=O)c1ccccc1Nc1nc(Nc2ccc(C(=O)Nc3ccccc3N)cc2)ncc1Cl [12a, N-(2-aminophenyl)-4-((5-chloro-4-((2-(isopropylsulfonyl)phenyl)amino)pyrimidin-2-yl)amino)benzamide]
